Consider 1 compound from paper doi:10.1101/2020.01.28.923938v1 (biorxiv, 2020).

The assay has as its target CYP2D6 (Homo sapiens, UniProt P10635). Description: in situ kinetics of dextrorphan formation in HLM, ADE-OPI-MS. The format is biochemical.

Chain of CYP2D6 (P10635 whole entry): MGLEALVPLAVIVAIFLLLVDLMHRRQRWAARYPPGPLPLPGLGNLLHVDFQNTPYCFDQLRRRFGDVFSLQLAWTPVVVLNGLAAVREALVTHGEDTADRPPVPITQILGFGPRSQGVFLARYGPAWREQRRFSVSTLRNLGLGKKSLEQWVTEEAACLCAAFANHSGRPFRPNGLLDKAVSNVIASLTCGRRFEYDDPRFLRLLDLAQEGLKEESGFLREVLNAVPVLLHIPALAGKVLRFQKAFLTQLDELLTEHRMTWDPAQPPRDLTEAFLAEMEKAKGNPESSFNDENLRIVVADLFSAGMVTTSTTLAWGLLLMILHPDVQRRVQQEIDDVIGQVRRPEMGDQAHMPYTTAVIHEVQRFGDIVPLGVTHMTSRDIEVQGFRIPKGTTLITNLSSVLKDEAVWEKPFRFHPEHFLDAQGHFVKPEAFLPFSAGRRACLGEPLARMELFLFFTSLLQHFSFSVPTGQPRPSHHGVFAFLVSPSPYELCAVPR

By Km is commonly meant the concentration of substrate that gives half-maximal velocity. Consider `COc1ccc2c(c1)[C@]13CCCC[C@@H]1[C@H](C2)N(C)CC3` [dextromethorphan], for which the Michaelis-Menten constant (Km) stood at 3.79 µM.
